{"source": "paper PMC3423587", "about": "(Bioorganic & medicinal chemistry letters, 2012)", "key": {"[1]": {"tested_on": "β-secretase in neuroblastoma cells", "conditions": "Neuroblastoma cell"}, "recombinant β-secretase": {"molecular_target": "recombinant β-secretase (Homo sapiens, UniProt P56817)", "sequence (P56817 46-501)": "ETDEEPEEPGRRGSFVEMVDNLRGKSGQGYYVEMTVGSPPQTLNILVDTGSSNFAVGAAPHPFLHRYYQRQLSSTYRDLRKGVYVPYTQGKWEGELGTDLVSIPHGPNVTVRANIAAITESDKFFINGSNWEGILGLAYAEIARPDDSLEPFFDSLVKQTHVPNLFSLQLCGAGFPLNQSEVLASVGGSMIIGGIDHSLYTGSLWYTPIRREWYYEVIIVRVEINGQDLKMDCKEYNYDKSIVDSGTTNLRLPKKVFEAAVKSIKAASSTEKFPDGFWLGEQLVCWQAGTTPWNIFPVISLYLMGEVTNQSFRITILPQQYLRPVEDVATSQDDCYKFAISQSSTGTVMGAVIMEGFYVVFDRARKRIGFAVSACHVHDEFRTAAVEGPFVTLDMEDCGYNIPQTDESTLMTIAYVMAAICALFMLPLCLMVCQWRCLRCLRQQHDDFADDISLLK", "assay": "β-secretase inhibitory activity against recombinant β-secretase", "conditions": "for fold lower enzyme inhibitory potency: compared to 3a"}, "transgenic AD mice": {"tested_on": "transgenic AD mice", "conditions": "cited from earlier work"}}, "data": [{"smiles": "NC1=Nc2ccc(Oc3ccccc3)cc2CN1[C@@H](CCC(=O)N(Cc1cn[nH]c1)C1CCCCC1)C1CCCCC1", "note": "[4h]", "values": [{"measurement": "IC50", "setting": "[1]", "value": 0.048, "unit": "µM"}]}, {"smiles": "CN(C(=O)OC[C@@H](c1ccccc1)N1Cc2cc(Oc3ccccc3)ccc2N=C1N)C1CCCCC1", "note": "[3c]", "values": [{"measurement": "fold loss of potency", "setting": "recombinant β-secretase; compared to 3b", "value": "~5", "unit": "fold"}]}, {"smiles": "CN(C(=O)CC[C@@H](C1CCCOC1)N1Cc2cc(Oc3ccccc3)ccc2N=C1N)C1CCCCC1", "note": "(stereo partly shown) [3g]", "values": [{"measurement": "fold lower enzyme inhibitory potency", "setting": "recombinant β-secretase", "value": "~5", "unit": "fold"}]}, {"smiles": "COc1cccc(CNC[C@@H](O)[C@H](Cc2ccccc2)NC(=O)c2cc(C(=O)N[C@H](C)c3ccccc3)cc(N(C)S(C)(=O)=O)c2)c1", "note": "[GRL-8234]", "values": [{"measurement": "effect on cognitive function", "setting": "transgenic AD mice", "value": "rescued the decline of cognitive function"}]}, {"smiles": "COCc1nc(CN(C(=O)CC[C@@H](C2CCCCC2)N2Cc3cc(Oc4ccccc4)ccc3N=C2N)C2CCCCC2)cs1", "note": "[4f]", "values": [{"measurement": "fold improvement of enzyme activity", "setting": "recombinant β-secretase; over 4b", "value": "~6", "unit": "fold"}]}, {"smiles": "CN(C(=O)OC[C@@H](C1CCCCC1)N1Cc2cc(Oc3ccccc3)ccc2N=C1N)C1CCCCC1", "note": "[3d]", "values": [{"measurement": "fold improved potency", "setting": "recombinant β-secretase; over 3c", "value": 20, "unit": "fold"}]}, {"smiles": "CN(C(=O)CC[C@@H](c1ccccc1)N1Cc2cc(Oc3ccccc3)ccc2N=C1N)C1CCCCC1", "note": "[3b]", "values": [{"measurement": "fold lower enzyme inhibitory potency", "setting": "recombinant β-secretase", "value": "~6", "unit": "fold"}]}]}
